The nature of data set [1]: Solubility in 0.1 M phosphate buffer at pH 7. Type of data set: physicochemical. The note with it: 0.1 M phosphate buffer at pH 7, 10 mg/mL final peptide concentration, shaking 2 hours at room temperature, peptides as TFA-salts, measured sample pH 6.5-7.0; for solubility: read-out: Solubility.
A short description of data set [2]: Mouse PK after intravenous application. Particulars: plasma, male NMRI mice, intravenous 30-60 nmol/kg, non-compartmental analysis. Type of data set: in vivo. As to the method: Pharmacokinetic parameters of the peptides were determined after intravenous application to NMRI mice (Naval Medical Research Institute mice). Male NMRI mice were obtained from Janvier Laboratories (France) weighing 30 g to 40 g. Mice were housed in standard cages with a 12:12 hours light:dark cycle and standard food and water access ad libitum. Each test peptide was dissolved in 50 mM phosphate buffer (pH 7.4)/3.5% mannitol. Intravenous application of 30-60 nmol/kg was performed via the tail vein. Serial blood samples from conscious mice were collected from the saphenous vein in EDTA-containing vials at different time points up to 56 hours post-dosing. Subsequently, plasma was prepared by centrifugation for 5 minutes at approximately 5000 rpm and stored at −20° C. until quantification of the peptide plasma levels by liquid chromatography mass spectrometry (LC-MS). Individual plasma concentration-time profiles were analysed by a non-compartmental approach and the resulting pharmacokinetic parameters were calculated.

Another data set concerns the target T1, hGLP1R (Homo sapiens, UniProt P43220).
T1 construct: expressed in transfected cells; host or cells: HEK-293 CRE-luciferase reporter cells
The data set can be described thus: hGLP1R CreLuc assay in 0.5% and 100% plasma (HEK-293 CRE-luciferase reporter cells). The format is cell-based. The note with it: 0.5% human plasma, HEK-293 reporter cells, read-out: hGLP1R 0.5% hP.

The next data set has as its target T2, hGIPR (Homo sapiens, UniProt P48546).
T2 construct: expressed in transfected cells; host or cells: CHO CRE-luciferase reporter cells
T2 sequence (P48546 22-466): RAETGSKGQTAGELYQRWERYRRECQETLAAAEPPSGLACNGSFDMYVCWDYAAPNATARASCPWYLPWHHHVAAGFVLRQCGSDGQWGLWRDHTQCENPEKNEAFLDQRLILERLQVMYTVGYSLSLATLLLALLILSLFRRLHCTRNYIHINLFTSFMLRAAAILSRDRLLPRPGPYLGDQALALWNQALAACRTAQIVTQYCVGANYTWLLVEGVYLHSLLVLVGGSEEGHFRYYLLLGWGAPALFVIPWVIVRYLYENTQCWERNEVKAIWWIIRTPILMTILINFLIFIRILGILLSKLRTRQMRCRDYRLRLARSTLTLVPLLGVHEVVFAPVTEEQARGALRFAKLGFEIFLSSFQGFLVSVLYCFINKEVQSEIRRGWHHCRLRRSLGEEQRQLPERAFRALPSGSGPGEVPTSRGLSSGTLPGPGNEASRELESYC
The data set can be described thus: hGIPR CreLuc assay in 0.5% and 100% plasma (CHO CRE-luciferase reporter cells). Particulars: 0.5% human plasma, read-out: hGIPR 0.5% hP. The format is cell-based.

In the next data set the target is T3, hNPY2R (Homo sapiens, UniProt P49146).
T3 construct: expressed in transfected cells; host or cells: HEK-293 CRE-luciferase reporter cells
T3 sequence (P49146 1-381): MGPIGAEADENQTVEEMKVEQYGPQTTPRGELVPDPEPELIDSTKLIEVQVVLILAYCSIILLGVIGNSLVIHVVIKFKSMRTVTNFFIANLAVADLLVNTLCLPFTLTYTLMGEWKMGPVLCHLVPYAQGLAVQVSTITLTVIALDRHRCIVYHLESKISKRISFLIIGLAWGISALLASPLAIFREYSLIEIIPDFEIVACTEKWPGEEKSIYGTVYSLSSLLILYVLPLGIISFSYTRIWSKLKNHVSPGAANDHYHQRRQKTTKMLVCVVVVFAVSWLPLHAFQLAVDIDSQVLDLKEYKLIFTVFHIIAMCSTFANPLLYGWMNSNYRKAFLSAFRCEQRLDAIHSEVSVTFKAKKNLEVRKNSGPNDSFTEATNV
The data set can be described thus: hNPY2R CreLuc assay in 0.5% and 100% plasma (HEK-293 CRE-luciferase reporter cells). The format is cell-based. Particulars: 0.5% human plasma, HEK-293 reporter cells, read-out: hNPY2R 0.5% hP.

T1 sequence (P43220 24-463): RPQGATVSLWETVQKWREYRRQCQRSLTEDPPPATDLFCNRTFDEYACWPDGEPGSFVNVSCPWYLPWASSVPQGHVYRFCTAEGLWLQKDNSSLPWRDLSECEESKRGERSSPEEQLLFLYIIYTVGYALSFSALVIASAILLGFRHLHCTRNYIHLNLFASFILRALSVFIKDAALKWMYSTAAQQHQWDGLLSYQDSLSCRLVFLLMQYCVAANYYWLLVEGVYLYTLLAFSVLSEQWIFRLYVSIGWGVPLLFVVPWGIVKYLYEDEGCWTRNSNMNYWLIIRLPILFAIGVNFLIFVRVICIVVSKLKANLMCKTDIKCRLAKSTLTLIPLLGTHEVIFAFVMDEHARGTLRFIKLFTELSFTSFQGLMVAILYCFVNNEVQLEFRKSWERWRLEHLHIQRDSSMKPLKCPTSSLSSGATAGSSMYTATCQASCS

For `CC[C@H](C)[C@H](NC(=O)[C@H](CC(C)C)NC(=O)[C@H](Cc1c[nH]cn1)NC(=O)[C@H](CCCNC(=N)N)NC(=O)[C@@H](NC(=O)[C@H](Cc1ccccc1)NC(=O)[C@H](C)NC(=O)C(C)(C)NC(=O)[C@H](CCC(N)=O)NC(=O)[C@H](C)NC(=O)[C@H](CCC(N)=O)NC(=O)[C@H](CCCCN)NC(=O)[C@H](CCC(=O)O)NC(=O)[C@H](CC(C)C)NC(=O)C(C)(C)NC(=O)[C@@H](NC(=O)[C@H](CO)NC(=O)[C@H](Cc1ccc(O)cc1)NC(=O)[C@H](CC(=O)O)NC(=O)[C@H](CO)NC(=O)[C@@H](NC(=O)[C@H](Cc1ccccc1)NC(=O)[C@@H](NC(=O)CNC(=O)[C@H](CCC(=O)O)NC(=O)C(C)(C)NC(=O)[C@@H](N)Cc1ccc(O)cc1)[C@@H](C)O)[C@@H](C)O)[C@@H](C)CC)C(C)C)C(=O)N[C@@H](CC(N)=O)C(=O)N[C@@H](CCCCNC(=O)CCCCCNC(=O)CC[C@H](NC(=O)CC[C@H](NC(=O)CC[C@H](NC(=O)CC[C@H](NC(=O)CC[C@H](NC(=O)CC[C@H](NC(=O)CCCCCCCCCCCCCCCCC(=O)O)C(=O)O)C(=O)O)C(=O)O)C(=O)O)C(=O)O)C(=O)O)C(=O)NC(C)(C)C(=O)N[C@H](C(=O)N[C@@H](CCCNC(=N)N)C(=O)N[C@@H](CCC(N)=O)C(=O)N[C@@H](CCCNC(=N)N)C(=O)N[C@@H](Cc1ccc(O)cc1)C(N)=O)[C@@H](C)O` [Compound 9, Y-Aib-E-G-T-F-T-S-D-Y-S-I-Aib-L-E-K-Q-A-Q-Aib-A-F-V-R-H-L-I-N-K(1,3)-Aib-T-R-Q-R-Y-NH2.C18DA-gGlu-gGlu-gGlu-gGlu-gGlu-gGlu-AHX(1,2)], in data set [1], the solubility was determined as 4700 µg/mL. Moreover, the MRT in data set [2] was found to be 7.5 h.
On to `CC[C@H](C)[C@H](NC(=O)[C@H](CC(C)C)NC(=O)[C@H](Cc1c[nH]cn1)NC(=O)[C@H](CCCNC(=N)N)NC(=O)[C@@H](NC(=O)[C@H](Cc1ccccc1)NC(=O)[C@H](C)NC(=O)C(C)(C)NC(=O)[C@H](CCC(N)=O)NC(=O)[C@H](C)NC(=O)[C@H](CCC(N)=O)NC(=O)[C@H](CCCCN)NC(=O)[C@H](CCC(=O)O)NC(=O)[C@H](CC(C)C)NC(=O)C(C)(C)NC(=O)[C@@H](NC(=O)[C@H](CO)NC(=O)[C@H](Cc1ccc(O)cc1)NC(=O)[C@H](CC(=O)O)NC(=O)[C@H](CO)NC(=O)[C@@H](NC(=O)[C@H](Cc1ccccc1)NC(=O)[C@@H](NC(=O)CNC(=O)[C@H](CCC(=O)O)NC(=O)C(C)(C)NC(=O)[C@@H](N)Cc1ccc(O)cc1)[C@@H](C)O)[C@@H](C)O)[C@@H](C)CC)C(C)C)C(=O)N[C@@H](CC(N)=O)C(=O)N[C@@H](CCCCNC(=O)CCCCCNC(=O)CC[C@H](NC(=O)CC[C@H](NC(=O)CC[C@H](NC(=O)CC[C@H](NC(=O)CC[C@H](NC(=O)CCCCCCCCCCCCCCCCC(=O)O)C(=O)O)C(=O)O)C(=O)O)C(=O)O)C(=O)O)C(=O)N[C@@H](CC(C)C)C(=O)N[C@H](C(=O)N[C@@H](CCCNC(=N)N)C(=O)N[C@@H](CCC(N)=O)C(=O)N[C@@H](CCCNC(=N)N)C(=O)N[C@@H](Cc1ccc(O)cc1)C(N)=O)[C@@H](C)O` [Compound 69, Y-Aib-E-G-T-F-T-S-D-Y-S-I-Aib-L-E-K-Q-A-Q-Aib-A-F-V-R-H-L-I-N-K(1,3)-L-T-R-Q-R-Y-NH2.C18DA-gGlu-gGlu-gGlu-gGlu-gGlu-AHX(1,2)], for which, in data set [1], the solubility is 4800 µg/mL. The compound further yielded a mean residence time (MRT) in data set [2] of 4.6 h.
As to `CC[C@H](C)[C@H](NC(=O)[C@H](CC(C)C)NC(=O)[C@H](Cc1c[nH]cn1)NC(=O)[C@H](CCCNC(=N)N)NC(=O)[C@@H](NC(=O)[C@H](Cc1ccccc1)NC(=O)[C@H](C)NC(=O)C(C)(C)NC(=O)[C@H](CCC(N)=O)NC(=O)[C@H](C)NC(=O)[C@H](CCC(N)=O)NC(=O)[C@H](CCCCN)NC(=O)[C@H](CC(=O)O)NC(=O)[C@H](CC(C)C)NC(=O)C(C)(C)NC(=O)[C@@H](NC(=O)[C@H](CO)NC(=O)[C@H](Cc1ccc(O)cc1)NC(=O)[C@H](CC(=O)O)NC(=O)[C@H](CO)NC(=O)[C@@H](NC(=O)[C@H](Cc1ccccc1)NC(=O)[C@@H](NC(=O)CNC(=O)[C@H](CCC(=O)O)NC(=O)C(C)(C)NC(=O)[C@@H](N)Cc1ccc(O)cc1)[C@@H](C)O)[C@@H](C)O)[C@@H](C)CC)C(C)C)C(=O)N[C@@H](CC(N)=O)C(=O)N[C@@H](CCCCNC(=O)[C@@H](N)CCCCNC(=O)CC[C@H](NC(=O)[C@H](CCC(=O)O)NC(=O)CC[C@H](NC(=O)CC[C@H](NC(=O)CC[C@H](NC(=O)CC[C@H](NC(=O)CCCCCCCCCCCCCCCCCCC(=O)O)C(=O)O)C(=O)O)C(=O)O)C(=O)O)C(=O)O)C(=O)NC(C)(C)C(=O)N[C@H](C(=O)N[C@@H](CCCNC(=N)N)C(=O)N[C@@H](CCC(N)=O)C(=O)N[C@@H](CCCNC(=N)N)C(=O)N[C@@H](Cc1ccc(O)cc1)C(N)=O)[C@@H](C)O` [Compound 74, Y-Aib-E-G-T-F-T-S-D-Y-S-I-Aib-L-D-K-Q-A-Q-Aib-A-F-V-R-H-L-I-N-K(1,3)-Aib-T-R-Q-R-Y-NH2.C20DA-gGlu-gGlu-gGlu-gGlu-gGlu-gGlu-eLys(1,2)], the solubility in data set [1] turned out to be 8600 µg/mL. The compound also came in with an MRT in data set [2] of 16.4 h.
Regarding `CC[C@H](C)[C@H](NC(=O)[C@H](CC(C)C)NC(=O)[C@H](Cc1c[nH]cn1)NC(=O)[C@H](CCCNC(=N)N)NC(=O)[C@@H](NC(=O)[C@H](Cc1ccccc1)NC(=O)[C@H](C)NC(=O)C(C)(C)NC(=O)[C@H](CCC(N)=O)NC(=O)[C@H](C)NC(=O)[C@H](CCC(N)=O)NC(=O)[C@H](CCCCN)NC(=O)[C@H](CCC(=O)O)NC(=O)[C@H](CC(C)C)NC(=O)C(C)(C)NC(=O)[C@@H](NC(=O)[C@H](CO)NC(=O)[C@H](Cc1ccc(O)cc1)NC(=O)[C@H](CC(=O)O)NC(=O)[C@H](CO)NC(=O)[C@@H](NC(=O)[C@H](Cc1ccccc1)NC(=O)[C@@H](NC(=O)CNC(=O)[C@H](CCC(=O)O)NC(=O)C(C)(C)NC(=O)[C@@H](N)Cc1ccc(O)cc1)[C@@H](C)O)[C@@H](C)O)[C@@H](C)CC)C(C)C)C(=O)N[C@@H](CC(N)=O)C(=O)N[C@@H](CCCCNC(=O)CCCCCNC(=O)CC[C@H](NC(=O)CC[C@H](NC(=O)CC[C@H](NC(=O)CC[C@H](NC(=O)CC[C@H](NC(=O)CCCCCCCCCCCCCCCCCCC(=O)O)C(=O)O)C(=O)O)C(=O)O)C(=O)O)C(=O)O)C(=O)NC(C)(C)C(=O)N[C@H](C(=O)N[C@@H](CCCNC(=N)N)C(=O)N[C@@H](CCC(N)=O)C(=O)N[C@@H](CCCNC(=N)N)C(=O)N[C@@H](Cc1ccc(O)cc1)C(N)=O)[C@@H](C)O` [Compound 167, Y-Aib-E-G-T-F-T-S-D-Y-S-I-Aib-L-E-K-Q-A-Q-Aib-A-F-V-R-H-L-I-N-K(1,3)-Aib-T-R-Q-R-Y-NH2.C20DA-gGlu-gGlu-gGlu-gGlu-gGlu-AHX(1,2)], the EC50 on hGLP1R stood at 1 nM; on hGIPR, 0.2 nM; on hNPY2R, 13.3 nM. The solubility at 2 h in data set [1] was determined as 10000 µg/mL.

Values taken from US20250382344A1, “Soluble GLP1/GIP/NPY2 Receptor Triple Agonists” (Boehringer Ingelheim International GmH, priority 2024, published 2025).
